Measurements taken from ChEMBL document CHEMBL5143656, “Polyphenolic compounds: Synthesis, assessment of antimicrobial effect and enzymes inhibition against important medicinal enzymes with computational details” (Bioorg Med Chem Lett, 2022).
In brackets after ≈: the same amount, converted by molar mass. One block for each compound: values may come before it.

How the values were obtained:
Escherichia coli = experiment: Antimicrobial activity Escherichia coli against incubated for 24 hrs; type: functional
Tyrosinase [1] = target: T1, Tyrosinase (Homo sapiens, UniProt P14679); experiment: Inhibition of tyrosinase (unknown origin) using L-DOPA as substrate incubated for 10 mins
T1 sequence (P14679 whole entry): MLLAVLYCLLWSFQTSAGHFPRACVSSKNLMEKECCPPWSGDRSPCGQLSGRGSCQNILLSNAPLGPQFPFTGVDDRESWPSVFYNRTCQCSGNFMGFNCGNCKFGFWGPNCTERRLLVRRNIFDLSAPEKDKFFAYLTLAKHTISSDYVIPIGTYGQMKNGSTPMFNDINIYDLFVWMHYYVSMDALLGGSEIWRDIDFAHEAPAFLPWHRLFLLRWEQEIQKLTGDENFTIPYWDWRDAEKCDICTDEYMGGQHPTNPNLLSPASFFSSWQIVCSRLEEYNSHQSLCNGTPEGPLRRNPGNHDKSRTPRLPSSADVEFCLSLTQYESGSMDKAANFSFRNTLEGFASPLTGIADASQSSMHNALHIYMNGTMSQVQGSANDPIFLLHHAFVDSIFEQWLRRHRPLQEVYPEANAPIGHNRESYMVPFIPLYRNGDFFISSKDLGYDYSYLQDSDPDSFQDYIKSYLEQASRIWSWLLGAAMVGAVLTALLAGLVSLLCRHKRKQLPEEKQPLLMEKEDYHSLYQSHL

PC-3 = experiment: Cytotoxicity in human PC3 cells assessed as reduction in cell viability incubated for 24 hrs by MTT assay; type: functional, cell-based; settings: PC-3, 24 h
Candida albicans = experiment: Antimicrobial activity Candida albicans against incubated for 24 hrs; type: functional
Acetylcholinesterase = Acetylcholinesterase (Homo sapiens, UniProt P22303); experiment: Inhibition of AChE (unknown origin) using […] as substrate incubated for 10 mins by Ellman's method
Staphylococcus aureus = experiment: Antimicrobial activity Staphylococcus aureus against incubated for 24 hrs; type: functional
Klebsiella pneumoniae = experiment: Antimicrobial activity Klebsiella pneumoniae against incubated for 24 hrs; type: functional
Cyberlindnera jadinii = experiment: Antimicrobial activity Candida utilis against incubated for 24 hrs; type: functional; settings: Williopsis jadinii
Enterococcus faecalis = experiment: Antimicrobial activity Enterococcus faecalis against incubated for 24 hrs; type: functional
Cholinesterase = Cholinesterase (Homo sapiens, UniProt P06276); experiment: Inhibition of BChE (unknown origin) using […] as substrate incubated for 10 mins by Ellman's method
Tyrosinase [2] = target: T1, Tyrosinase; experiment: Inhibition of tyrosinase (unknown origin)

Sequence of Acetylcholinesterase (P22303 whole entry): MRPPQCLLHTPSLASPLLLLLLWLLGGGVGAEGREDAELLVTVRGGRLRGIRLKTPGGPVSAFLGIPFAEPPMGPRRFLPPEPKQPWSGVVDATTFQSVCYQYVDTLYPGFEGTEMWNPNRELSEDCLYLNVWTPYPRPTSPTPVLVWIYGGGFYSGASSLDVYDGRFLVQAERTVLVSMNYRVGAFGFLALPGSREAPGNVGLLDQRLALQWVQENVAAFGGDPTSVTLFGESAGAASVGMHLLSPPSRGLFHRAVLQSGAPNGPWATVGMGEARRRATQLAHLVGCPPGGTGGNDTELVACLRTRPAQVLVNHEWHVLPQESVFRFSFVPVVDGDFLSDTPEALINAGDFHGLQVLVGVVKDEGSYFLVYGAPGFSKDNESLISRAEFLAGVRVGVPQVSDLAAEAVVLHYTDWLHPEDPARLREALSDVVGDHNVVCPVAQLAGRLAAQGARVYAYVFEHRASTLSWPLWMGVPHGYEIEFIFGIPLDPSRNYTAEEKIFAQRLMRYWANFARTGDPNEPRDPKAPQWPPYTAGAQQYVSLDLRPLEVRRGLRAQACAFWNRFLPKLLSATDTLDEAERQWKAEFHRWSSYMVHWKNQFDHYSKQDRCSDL
Sequence of Cholinesterase (P06276 whole entry): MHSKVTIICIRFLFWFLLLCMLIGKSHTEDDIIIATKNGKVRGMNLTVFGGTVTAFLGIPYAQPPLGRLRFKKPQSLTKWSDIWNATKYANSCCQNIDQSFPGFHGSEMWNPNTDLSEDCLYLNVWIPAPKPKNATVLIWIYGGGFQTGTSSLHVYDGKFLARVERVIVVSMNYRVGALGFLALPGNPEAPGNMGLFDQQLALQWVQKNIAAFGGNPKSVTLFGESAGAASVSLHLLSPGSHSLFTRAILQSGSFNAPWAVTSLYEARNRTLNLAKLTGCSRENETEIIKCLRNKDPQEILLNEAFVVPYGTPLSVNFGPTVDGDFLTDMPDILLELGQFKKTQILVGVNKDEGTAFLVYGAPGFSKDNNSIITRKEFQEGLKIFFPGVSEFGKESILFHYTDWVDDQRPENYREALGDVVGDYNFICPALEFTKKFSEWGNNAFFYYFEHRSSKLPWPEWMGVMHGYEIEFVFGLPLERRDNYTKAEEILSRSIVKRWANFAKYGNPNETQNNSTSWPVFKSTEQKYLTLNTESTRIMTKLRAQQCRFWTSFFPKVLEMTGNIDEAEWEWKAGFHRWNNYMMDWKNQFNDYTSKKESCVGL

Compound: CCC(c1ccc(O)c(OC)c1)c1cccc(O)c1O (stereo not drawn)
MIC (Escherichia coli): 181 µg/mL (≈ 659 µM)
IC50 (Tyrosinase [1]): 2.32 µM
IC50 (PC-3): 16.1 µg/mL (≈ 58.9 µM)
MIC (Candida albicans): 448 µg/mL (≈ 1630 µM)
IC50 (Acetylcholinesterase): 5.66 µM
MIC (Staphylococcus aureus): 284 µg/mL (≈ 1040 µM)
MIC (Klebsiella pneumoniae): 277 µg/mL (≈ 1010 µM)
MIC (Cyberlindnera jadinii): 467 µg/mL (≈ 1700 µM)
MIC (Enterococcus faecalis): 369 µg/mL (≈ 1350 µM)
IC50 (Cholinesterase): 2.82 µM

Compound: CCC(c1ccc(O)c(OC)c1)c1ccc(OC)cc1O (stereo not drawn)
MIC (Escherichia coli): 269 µg/mL (≈ 933 µM)
IC50 (Tyrosinase [1]): 2.83 µM
IC50 (PC-3): 12.2 µg/mL (≈ 42.2 µM)
MIC (Candida albicans): 220 µg/mL (≈ 761 µM)
IC50 (Acetylcholinesterase): 4.76 µM
MIC (Staphylococcus aureus): 184 µg/mL (≈ 638 µM)
MIC (Klebsiella pneumoniae): 204 µg/mL (≈ 707 µM)
MIC (Cyberlindnera jadinii): 249 µg/mL (≈ 864 µM)
MIC (Enterococcus faecalis): 112 µg/mL (≈ 389 µM)
IC50 (Cholinesterase): 2.25 µM

IC50 (Tyrosinase [2]): 65.1 µM
Compound: O=c1c(O)c(-c2ccc(O)cc2)oc2cc(O)cc(O)c12 [KAEMPFEROL]

IC50 (Tyrosinase [2]): 78.5 µM
Compound: O=C(/C=C/c1ccc(O)cc1)OC[C@H]1O[C@@H](Oc2c(-c3ccc(O)cc3)oc3cc(O)cc(O)c3c2=O)[C@H](O)[C@@H](O)[C@@H]1O [TILIROSIDE]
